From ChEMBL document CHEMBL3045997, “Some remarkable reactions of the diterpene eriocephalin: Neo-clerodane derivatives with insect antifeedant activity” (1994)

What was measured:
Spodoptera littoralis [1] = experiment: Antifeedant activity against Spodoptera littoralis larvae fed on compound-treated disk after 18 hr by two-choice assay; format: functional
Spodoptera littoralis [2] = experiment: Antifeedant activity against Spodoptera littoralis larvae fed on compound-treated disk at 100 ppm after 18 hr by two-choice assay; format: functional

For `CC(=O)O[C@@H]1O[C@H](c2ccoc2)C[C@]12[C@H](C)[C@@H](OC(C)=O)C(=O)[C@H]1[C@@H]2CCC[C@@]12CO[C@@H](C)O2`, the AFC50 (Spodoptera littoralis [1]) was greater than 390 ppm and the AFI (Spodoptera littoralis [2]) was 34.1%.

`CC(=O)OC[C@]12C(=O)[C@H](O)[C@@H](C)[C@]3(C[C@@H](c4ccoc4)O[C@H]3OC(C)=O)[C@H]1CCC[C@]21CO1` [ERIOCEPHALIN] showed an AFC50 (Spodoptera littoralis [1]) greater than 1000 ppm and an AFI (Spodoptera littoralis [2]) of 5.5%.

For `CC(=O)OC[C@]12[C@H](CCC[C@]13CO3)[C@@]1(C[C@@H](c3ccoc3)O[C@@H]1O)[C@H](C)[C@@H](OC(C)=O)[C@@H]2OC(C)=O`, the AFC50 (Spodoptera littoralis [1]) was greater than 1000 ppm and the AFI (Spodoptera littoralis [2]) was -14.3%.

For `CC(=O)OC[C@]12[C@H](CCC[C@]13CO3)[C@@]1(C[C@@H](c3ccoc3)O[C@@H]1OC(C)=O)[C@H](C)[C@@H](OC(C)=O)[C@@H]2OC(C)=O`, the AFC50 (Spodoptera littoralis [1]) was greater than 1000 ppm and the AFI (Spodoptera littoralis [2]) was 26.7%.

In the case of `CC(=O)OC[C@]12[C@H](CCC[C@]13CO3)[C@@]1(C[C@@H](c3ccoc3)O[C@H]1OC(C)=O)[C@H](C)[C@@H](OC(C)=O)[C@@H]2O`, the AFC50 (Spodoptera littoralis [1]) is reported as greater than 1000 ppm and the AFI (Spodoptera littoralis [2]) is reported as -21.1%.

Work on `CC(=O)O[C@@H]1O[C@H](c2ccoc2)C[C@]12[C@H](C)[C@@H](OC(C)=O)C(=O)[C@H]1[C@@H]2CCC[C@@]12CO[C@H](C)O2` yielded an AFC50 (Spodoptera littoralis [1]) greater than 1000 ppm and an AFI (Spodoptera littoralis [2]) of -5.4%.

Compound `CC(=O)OC[C@]12[C@H](CCC[C@]13CO3)[C@@]1(C[C@@H](c3ccoc3)O[C@@H]1O)[C@H](C)[C@@H](O)[C@@H]2OC(C)=O` has an AFC50 (Spodoptera littoralis [1]) of 39 ppm and an AFI (Spodoptera littoralis [2]) of 54%.

`CC(=O)OC[C@]12[C@H](CCC[C@]13CO3)[C@@]1(C[C@@H](c3ccoc3)O[C@@H]1O)[C@H](C)[C@@H](O)[C@@H]2O` gave an AFC50 (Spodoptera littoralis [1]) of 300 ppm and an AFI (Spodoptera littoralis [2]) of 30.4%.

With `CC(=O)OC[C@]12[C@H](CCC[C@]13CO3)[C@@]1(C[C@@H](c3ccoc3)O[C@@H]1O)[C@H](C)[C@@H](OC(C)=O)[C@@H]2O` the AFC50 (Spodoptera littoralis [1]) was greater than 1000 ppm and the AFI (Spodoptera littoralis [2]) was 5.4%.
